Test results reported in patent US10441537B2, “Unit doses, aerosols, kits, and methods for treating heart conditions by pulmonary administration” (InCarda Therapeutics, Inc., priority 2017, dated 2019).
Like-named read-outs stand apart in the source and are kept apart here.

Legend:
healthy volunteers [1] = experiment: Phase 1 study: auscultation, respiration rate, chest x-rays; format: in vivo, human
Experimental: Pulmonary safety was assessed by performing lung spirometry tests and measuring peripheral oxygen saturation (SpO2%) prior to dosing and at various times after completion of the inhalation. Lung spirometry tests evaluated all lung function parameters, including forced vital capacity (FVC), forced expiratory volume in 1 second (FEV1), peak expiratory flow (PEF), and forced expiratory flow at 25% and 75% intervals (FEF25-75). Auscultation and respiration rate were also measured prior to dosing and at various times after inhalation. Chest x-rays were performed on subjects before and after flecainide inhalation.

[2] = Phase 1 study: venous plasma pharmacokinetics; format: in vivo, human; details: for Tmax / Cmax / AUC(0-t) / half-life: venous plasma; for Dist. t1/2α, mean (CV %): both; for half-life: read-out: Elim. t1/2, mean (CV %) (converted)
Experimental: In this study, for inhalation delivery of flecainide, the estimated total lung doses (eTLDs) were calculated to account for losses of flecainide in the inhalation device and losses of flecainide in subjects' mouth and throat. eTLD was thereby used to denote the dose that actually reached the lungs of the subjects. By design, in all nebulizers there can be a residual volume or mass of drug solution that stays in the nebulizer, and there can also be a percentage of the aerosol caught by subject's throat and mouth. For instance, in this study, it was estimated that 30% of the aerosol was lost in subject's throat and mouth.

[3] = test system: induced atrial fibrillation; experiment: Conversion of ACh/burst-pacing-induced AF in intact porcine model (Example 6); format: in vivo, pigs
Experimental: After 30-min recovery, the alternate intervention was tested. Times for conversion to normal sinus rhythm were compared.

[4] = Plasma concentrations in LV, femoral vein and pulmonary artery of dogs (Example 7); format: in vivo
healthy volunteers [5] = details: in vivo, iv
Experimental: (§1) 3 cohorts of subjects, in total 34 healthy adult volunteers, were recruited for Part A study.
(§2) Part B was an open label non-randomized crossover in a cohort of 6 evaluable healthy adult volunteers.
In addition, the effects of changing posture from semi-recumbent to seated upright, vice-versa and during inhalation on HR and BP were assessed (Cohort 5).

healthy volunteers [6] = details: in vivo
From the text: as §1, §2
Adverse events were monitored and recorded.

[7] = IV 2 mg/Kg, n=3, package insert; cited from earlier work
in vivo = details: male, Yorkshire, pig, iv, 2 mg/kg
Experimental: The studies were carried out in male Yorkshire pigs (n=9) weighing 36±1.0 kg (mean±SEM). The pigs were pre-anesthetized with telazol (4.7 mg/kg, intramuscular) and subsequently further anesthetized using alpha-chloralose (80 mg/kg, IV bolus, followed by 24 mg/kg/h continuous IV infusion). The animals were intubated and ventilated at a constant rate of 12 breaths/min and tidal volume of 400 ml per stroke.
Simultaneous blood samples were drawn from the pigtail catheter positioned in the LV and from a catheter in the jugular vein.
The samples were centrifuged and frozen at −80° C. until drug level determination was performed using a bioanalytical assay method developed by Climax Laboratories, Inc.

[8] = before and after inhalation of 20, 30, 40 mg eTLD

Structure (SMILES): O=C(NCC1CCCCN1)c1cc(OCC(F)(F)F)ccc1OCC(F)(F)F (stereo not shown) [flecainide, flecainide acetate]
- respiratory rate (healthy volunteers [1]; Cohorts 1, 2, 3 and 5): minimal or no changes in respiratory rate
- Auscultation (healthy volunteers [1]; [8]): normal in all subjects
- Chest x-rays (healthy volunteers [1]; [8]): normal and showed no changes
- respiration rate (healthy volunteers [1]; [8]): No changes in respiration rate
- Tmax, median (min, max) ([2]; IV 2 mg/Kg over 10 min, Cohort 5, n=6, 2 mg/kg): 1 (0, 60) min after EOI
- Elim. t1/2β, mean (CV %) ([2]; Inhaled 20 mg, n=6): 9.87 (25) hours
- Tmax, median (min, max) ([2]; Inhaled 30 mg, Cohort 5, n=6): ≤ 1 min after EOI
- Tmax, median (min, max) ([2]; Inhaled 30 mg, Cohort 5, n=6, listed as Flecainide): 0.5 (0, 1) min after EOI
- Elim. t1/2β, mean (CV %) ([2]; Inhaled 40 mg, n=8 (post-hoc)): 9.0 (24) hours
- Elim. t1/2β, mean (CV %) ([2]; Inhaled 60 mg, n=7 (post-hoc)): 12.0 (14) hours
- Tmax ([2]; both sexes, human, inhaled or intranasal, 20 mg, Inhaled 20 mg, n=6, from end of inhalation, read-out: Tmax, median (min, max) (converted)): 1 min
- Cmax ([2]; both sexes, human, inhaled or intranasal, 20 mg, Inhaled 20 mg, n=6, read-out: Cmax, arithmetic mean (CV %)): 95.1 ng/mL
- Cmax ([2]; both sexes, human, inhaled or intranasal, 40 mg, Inhaled 40 mg, n=8 (post-hoc), read-out: Cmax, mean (CV %)): 173 ng/mL
- Tmax ([2]; both sexes, human, inhaled or intranasal, 40 mg, Inhaled 40 mg, n=8 (post-hoc), read-out: Tmax, median (min, max) (converted)): 1 min
- Cmax ([2]; both sexes, human, inhaled or intranasal, 60 mg, Inhaled 60 mg, n=7 (post-hoc), read-out: Cmax, mean (CV %)): 232 ng/mL
- Tmax ([2]; both sexes, human, inhaled or intranasal, 60 mg, Inhaled 60 mg, n=7 (post-hoc), read-out: Tmax, median (min, max) (converted)): 1 min
- Tmax ([2]; both sexes, human, inhaled or intranasal, 60 mg, two subjects each of 40 and 60 mg eTLD cohorts, after the end of inhalation, read-out: Tmax of the four subjects excluded post hoc): 20 to 240 min
- AUC(0-t) ([2]; both sexes, human, inhaled or intranasal, Inhaled 20 mg, n=6, read-out: AUCLast, mean (CV %)): 421 ng·h/mL
- AUC(0-t) ([2]; both sexes, human, inhaled or intranasal, Inhaled 40 mg, n=8 (post-hoc), read-out: AUCLast, mean (CV %)): 685 ng·h/mL
- AUC(0-t) ([2]; both sexes, human, inhaled or intranasal, Inhaled 60 mg, n=7 (post-hoc), read-out: AUCLast, mean (CV %)): 946 ng·h/mL
- Cmax ([2]; both sexes, human, inhaled, 40 mg, 40 mg eTLD cohort, read-out: Cmax of the two excluded subjects): 70.9 ng/mL
- Cmax ([2]; both sexes, human, inhaled, 60 mg, 60 mg eTLD cohort, read-out: Cmax of the two excluded subjects): 82.3 ng/mL
- Dist. t1/2α, mean (CV %) ([2]; human, in vivo, inhaled or intranasal, 20 mg): 3.86 (34) min
- Dist. t1/2α, mean (CV %) ([2]; human, in vivo, inhaled or intranasal, 40 mg): 4.19 (39) min
- Dist. t1/2α, mean (CV %) ([2]; human, in vivo, inhaled or intranasal, 60 mg): 3.47 (17) min
- estimated t1/2α ([2]; human, in vivo): 3.5 to 4.2 min
- Cmax ([2]; human, inhaled or intranasal, 30 mg, Inhaled 30 mg, Cohort 5, n=6, read-out: Cmax, mean (CV %)): 120 ng/mL
- half-life ([2]; human, inhaled or intranasal, 30 mg, Inhaled 30 mg, Cohort 5, n=6): 606 min
- AUC(0-t) ([2]; human, inhaled or intranasal, Inhaled 30 mg, Cohort 5, n=6, read-out: AUClast, mean (CV %)): 487 ng·h/mL
- Cmax ([2]; human, iv, 2 mg/kg, IV 2 mg/Kg, Cohort 5, n=6, read-out: Cmax, mean (CV %)): 749 ng/mL
- half-life ([2]; human, iv, 2 mg/kg, IV 2 mg/Kg, Cohort 5, n=6): 600 min
- AUC(0-t) ([2]; human, IV 2 mg/Kg, Cohort 5, n=6, read-out: AUClast, mean (CV %)): 3050 ng·h/mL
- venous plasma concentration-time curves, inhaled vs IV ([2]; inhaled 30 mg eTLD vs IV 2 mg/kg (b559: IV normalized to 30 mg), Cohort 5, 2 mg/kg): near-identical
- dose proportionality of venous plasma concentrations ([2]; inhaled 20, 30 or 40 mg eTLD): near dose proportionality
- time within which plasma concentration reached levels required for conversion ([3]; IT 0.75 mg/kg and 1.5 mg/kg (FIG. 66A)): ≤ 10 min
- dominant frequency of AF ([3]; IT 0.75 mg/kg and 1.5 mg/kg (FIG. 67)): reduced the dominant frequency of AF
- AF conversion in representative electrograms ([3]; IT 1.5 mg/kg (FIG. 65)): 5 min
- MAP and ventricular rate after conversion ([3]; IT 1.5 mg/kg or 0.75 mg/kg): restored MAP and ventricular rate to baseline values
- plasma concentrations transiently higher in the LV than in the PA (summary) ([4]; IT): ~2.5 fold
- plasma levels higher in the LV than in the systemic venous circulation ([4]; IT, at the time of conversion): ~2 fold
- plasma concentrations transiently higher in the PA than in the LV (summary) ([4]; IV infusion): ~3.5 fold
- time after administration at which LV and PA concentrations were nearly equal ([4]; IV or IT): 4 to 10 min
- pH of solution in water (2.6 mg/mL): 5.0
- appearance of solution (distilled water, diltiazem hydrochloride 50 mg/ml, flecainide acetate 30 mg/ml): clear with no visible particulate matter
- decrease in systolic pressure (healthy volunteers [5]): ≤ 18 mmHg
- maximal increase in HR (healthy volunteers [5]): 7 bpm
- transient decrease in systolic pressure (healthy volunteers [5]): 9 mmHg
- HR (healthy volunteers [5]; 2 mg/kg): An increase in HR was observed
- systolic and diastolic BP (healthy volunteers [5]; 2 mg/kg): Decreases in systolic and diastolic BP were observed
- Adverse Event: Cough (healthy volunteers [6]; both, human): 1
- Adverse Event: Lightheadedness (healthy volunteers [6]; both, human): 1
- study-drug related Cough (healthy volunteers [6]; both, human): 3 events in 3/25 subjects (12%)
- study-drug related Dry mouth (healthy volunteers [6]; both, human): 3 events in 3/25 subjects (12%)
- study-drug related Dysgeusia (healthy volunteers [6]; both, human): 2 events in 2/25 subjects (8%)
- study-drug related Dyspnoea (shortness of breath) (healthy volunteers [6]; both, human): 4 events in 4/25 subjects (16%)
- study-drug related Oropharyngeal discomfort (healthy volunteers [6]; both, human): 10 events in 10/25 subjects (40%)
- study-drug related dizziness (healthy volunteers [6]; both, human): 3 events in 3/25 subjects (12%)
- study-drug related headache (healthy volunteers [6]; both, human): 3 events in 2/25 subjects (8%)
- average events per subject (healthy volunteers [6]; human): 2
- probably study-drug related oropharyngeal discomfort, subjects (healthy volunteers [6]; human): 4
- study-drug related paresthesia oral (healthy volunteers [6]; human): 3 events in 3 subjects
- average events per subject (healthy volunteers [6]; human, iv): 7
- hypotension (systolic BP) for which the IV infusion had to be interrupted (healthy volunteers [6]; human, iv): < 65 mmHg
- severe and moderate intensity AEs probably related to the study drug (healthy volunteers [6]; human, iv): 1 severe and 2 moderate intensity AEs
- study-drug related application site coldness (healthy volunteers [6]; human, iv): 2 occurrences in 2 subjects
- study-drug related dizziness (healthy volunteers [6]; human, iv): 6 events in 6 subjects
- study-drug related headache (healthy volunteers [6]; human, iv): 5 events in 5 subjects
- study-drug related peripheral coldness, palpitations, and chest discomfort (healthy volunteers [6]; human, iv): each occurring 2 times 1 subject
- Number of Moderate or Severe TEAEs (healthy volunteers [6]; human, iv, 2 mg/kg): 4
- Number of Related TEAEs (healthy volunteers [6]; human, iv, 2 mg/kg): 35
- Number of Related, Moderate or Severe TEAEs (healthy volunteers [6]; human, iv, 2 mg/kg): 4
- Number of SAEs (healthy volunteers [6]; human, iv, 2 mg/kg): 0
- Number of Subjects with at least one Moderate or Severe TEAE (healthy volunteers [6]; human, iv, 2 mg/kg): 2 subjects (29%) n (%)
- Number of Subjects with at least one TEAE (healthy volunteers [6]; human, iv, 2 mg/kg): 7 (100) n (%)
- Number of Treatment-Emergent Adverse Events (healthy volunteers [6]; human, iv, 2 mg/kg): 49
- TEAE: Chest discomfort (healthy volunteers [6]; human, iv, 2 mg/kg): 3 such events also occurred in 1 subject n (%) [events]
- TEAE: Dizziness (healthy volunteers [6]; human, iv, 2 mg/kg): 6 events in 6/7 subjects, 86% n (%) [events]
- TEAE: Headache (healthy volunteers [6]; human, iv, 2 mg/kg): 6 events in 5/7 subjects, 71% n (%) [events]
- remaining study-drug related events (cough, dysphonia, dyspnoea, oral hypoesthesia, chest discomfort) (healthy volunteers [6]; human, po): once in 1 subject each
- serious adverse events (healthy volunteers [6]): No serious adverse events were reported
- tolerability (healthy volunteers [6]): well tolerated
- Number of SAEs (healthy volunteers [6]; iv, 2 mg/kg): no SAEs reported
- Tmax [7]: 10.0 min after EOI
- concentration at 30 min (in vivo; LV plasma level): 497 ± 190 ng/mL
- concentration at 30 min (in vivo; Venous plasma level): 519 ± 196 ng/mL
